From patent publication US9034655B2, “Highly water-soluble, cationic luminescent labels” (SETA BioMedicals, LLC, priority 2006, dated 2015)

Experiments:
[1] = Fluorescence (luminescent) lifetime of dyes and conjugates; assay type: physicochemical; conditions: for luminescent lifetime (τ): solvent not stated
Description: Typical assays based on the measurement of the fluorescence lifetime as a parameter include for example FRET (fluorescence resonance energy transfer) assays. The binding between a fluorescent donor labeled species (typically an antigen, or a ligand) and a fluorescent acceptor labeled species may be accompanied by a change in the intensity and/or the fluorescence lifetime. The lifetime can be measured using intensity-(Time corrlated single photon counting TCSPC) or phase-modulation-based methods (J. R. LAKOWICZ, PRINCIPLES OF FLUORESCENCE SPECTROSCOPY (2nd Ed. 1999)).

[2] = Fluorescence quantum yield (QY); assay type: physicochemical
[3] = Absorption and emission maxima (spectral properties); assay type: physicochemical
Description: The synthesis of representative dyes is provided in the Examples Section. The structures, absorption and emission data as well as the luminescent lifetime in different solvents of specific dyes are given in Table 1.

[4] = cited from earlier work

Compound	Lifetime [ns] ([1]; Ethanol (Table 1))	Lifetime [ns] ([1]; Water (Table 1))	λ(abs) [nm] ([3]; Ethanol)	λ(fl) [nm] ([3]; Ethanol)	λ(abs) [nm] ([3]; Water)	λ(fl) [nm] ([3]; Water)	(QY [%]) ([2]; Water (Table 1)) [%]	(QY [%]) ([2]; Ethanol (Table 1)) [%]	further results
CN(C)c1ccc2c3c(cccc13)C(=O)N(c1ccccc1)C2=O [Dye 1, phenylimide of 4-dimethyl aminonaphthalic acid]									Lifetime [ns] ([1]; Ethanol): <<1 ns; lifetime in ethanol ([1]; Ethanol): < 1 ns; lifetime in water compared with ethanol ([1]; Water): even further reduced; (QY [%]) ([2]; Ethanol): 0.5%; Q.Y. in water compared with ethanol ([2]; Water): even further reduced
CN1C[N+](C)(C)Cc2cc3c4c(cccc4c21)C(=O)N(c1ccc(C(=O)O)cc1)C3=O.[Cl-] [Dye 3, 5-(4-carboxyphenyl)-9,9,11-trimethyl-4,6-dioxo-5,6,8,9,10,11-hexahydro-4H-isoquino[4,5-g,h]quinazolin-9-ium chloride]									lifetime in water ([1]; Water): 9.3 ns; overall decrease in fluorescence lifetime ([1]; free dye in water vs IgG conjugate at D/P about 8): 10%; lifetime labeled to IgG ([1]; labeled to IgG at a D/P ratio of about 1): 8.9 ns; lifetime labeled to IgG ([1]; labeled to IgG, D/P ratio of about 8): 8.4 ns
CN1C[N+](C)(C)Cc2c1cc1c3c(cccc23)C(=O)N(CCCCCC(=O)O)C1=O [Dye 4a]									luminescent lifetime (τ) [1]: 26 ns
CN1C[N+](C)(C)Cc2c1cc1c3c(cccc23)C(=O)N(c2ccccc2)C1=O [Dye 6, 8,10,10-trimethyl-4,6-dioxo-5-phenyl-5,6,8,9,10,11-hexahydro-4H-isoquino[5,4-fg]quinazolin-10-ium hexafluorophosphate]	23.3	22.9	414	513	426	545		51	luminescent lifetime (τ) [1]: around 23 ns
CCOC(=O)c1c(C)nn2c(=O)c3cccc4c5c(cc(c43)c12)C[N+](C)(C)CN5C.[Cl-] [Dye 8]	7.8	5.7	436	584	449	600	7	44	Lifetime [ns] ([1]; Water + BSA): 6.1 ns; λ(abs) [nm] ([3]; Water + BSA): 449 nm; λ(fl) [nm] ([3]; Water + BSA): 600 nm
CN1C[N+](C)(C)Cc2c1ccc1cc3ccccc3cc21 [Dye 13, 2,2,4-trimethyl-1,2,3,4-tetrahydronaphtho[2,3-f]quinazolin-2-ium hexafluorophosphate]		20.9	395	462	398	481	40	30	lifetime in water ([1]; Water): 20 ns
fluorescein-isothiocyanate [FITC]									lifetime losses when covalently labeled to proteins ([4]; D/P ~ 8, Lakowicz et al. 2004): ~40%; lifetime τ ([4]; free label): 4.0 ns

Second part, led by results:

Lifetime [ns] ([1]; Ethanol (Table 1))	Lifetime [ns] ([1]; Water (Table 1))	λ(abs) [nm] ([3]; Ethanol)	λ(fl) [nm] ([3]; Ethanol)	λ(abs) [nm] ([3]; Water)	λ(fl) [nm] ([3]; Water)	(QY [%]) ([2]; Water (Table 1)) [%]	Compound	(QY [%]) ([2]; Ethanol (Table 1)) [%]	further results
8.0	9.3	390	500	404	518		CN1C[N+](C)(C)Cc2cc3c4c(cccc4c21)C(=O)N(c1ccc(C(=O)ON2C(=O)CCC2=O)cc1)C3=O [Dye 3-NHS]		
	9.4			405	515	72	CN1C[N+](C)(C)Cc2cc3c4c(cccc4c21)C(=O)N(c1ccc(C(=O)O)cc1)C3=O.[Cl-] [Dye 3a]		
8.5	9.4	393	498	405	515	72	CN1C[N+](C)(C)Cc2cc3c4c(cccc4c21)C(=O)N(c1ccccc1)C3=O.[Cl-] [Dye 5, 9,9,11-trimethyl-4,6-dioxo-5-phenyl-5,6,8,9,10,11-hexahydro-4H-isoquino[4,5-g,h]quinazolin-9-ium chloride]	58	Lifetime [ns] ([1]; DMF): 9.0 ns; Lifetime [ns] ([1]; Ethanol): 8.5 ns; Lifetime [ns] ([1]; Water): 9.4 ns; melting point: 235 °C; λ(abs) [nm] ([3]; DMF): 393 nm; λ(fl) [nm] ([3]; DMF): 500 nm; (QY [%]) ([2]; Ethanol): 58%; (QY [%]) ([2]; Water): 75%
